Results reported in patent US20240352046A1, “ECTONUCLEOTIDE PYROPHOSPHATASE-PHOSPHODIESTERASE-1 (ENPP1) INHIBITORS AND USES THEREOF” (1cBio, Inc., priority 2020, published 2024).

What follows are compounds tested against ENPP-1 (Ectonucleotide Pyrophosphatase/Phosphodiesterase 1) (Homo sapiens (Human), UniProt P22413) (assay: ENPP1 inhibition assay (AMP Glo, cGAMP substrate)). Conditions: cGAMP 20 μM substrate, ENPP1 1 nM.
Type: biochemical
Method: IC50 values of compounds against ENPP-1 (Ectonucleotide Pyrophosphatase/Phosphodiesterase 1) were determined at Integral BioSciences (India) using AMP Glo (Promega, Cat #V5011). Assay was performed in a 30 μL final volume in a white 96-well Half Area plate (Costar,Cat #3693). Dose response curve for the compounds were prepared in duplicates with starting conc. at 5 μM and a three-fold titration was performed. The reaction buffer consisted of 50 mM Tris (pH 8.0), 0.5 mM CaCl2), 1 μM ZnCl2, 250 mM NaCl and 0.1 mg/ml BSA. To the compound dilution, 15 μL of ENPP1 enzyme (R&D Systems; Cat #6136-EN-010) was added to each well (final conc. 1 nM) and the mix was pre-incubated for 15 min at RT. An equal volume (15 μL) containing cGAMP (Sigma, Cat #SML-1229) (final conc. 20 μM) was added to initiate the enzyme reaction and the reaction was incubated for 30 min at RT. The reaction was then stopped by heating at 90° C. for 3 minutes. 10 μl of reaction was then transferred to 384 well white, medium binding plates (Grenier, Cat #781075) to which 10 μl of AMP-Glo Reagent 1 was added and mixed well and incubated for 1 hour at 25° C. Following 60 min incubation, 20 μL of detection mixture was added to the enzyme reaction bringing the final volume to 40 μL. The reaction was further incubated for 60 min at RT after which the plates were read using BioTek Plate reader.
Analysis was done using the standard curve by non-linear regression, variable slope inhibitor curve fits (Graph-Pad Prism) and IC50's of compounds were determined wherever possible.

Sequence of ENPP-1 (Ectonucleotide Pyrophosphatase/Phosphodiesterase 1) (P22413 whole entry): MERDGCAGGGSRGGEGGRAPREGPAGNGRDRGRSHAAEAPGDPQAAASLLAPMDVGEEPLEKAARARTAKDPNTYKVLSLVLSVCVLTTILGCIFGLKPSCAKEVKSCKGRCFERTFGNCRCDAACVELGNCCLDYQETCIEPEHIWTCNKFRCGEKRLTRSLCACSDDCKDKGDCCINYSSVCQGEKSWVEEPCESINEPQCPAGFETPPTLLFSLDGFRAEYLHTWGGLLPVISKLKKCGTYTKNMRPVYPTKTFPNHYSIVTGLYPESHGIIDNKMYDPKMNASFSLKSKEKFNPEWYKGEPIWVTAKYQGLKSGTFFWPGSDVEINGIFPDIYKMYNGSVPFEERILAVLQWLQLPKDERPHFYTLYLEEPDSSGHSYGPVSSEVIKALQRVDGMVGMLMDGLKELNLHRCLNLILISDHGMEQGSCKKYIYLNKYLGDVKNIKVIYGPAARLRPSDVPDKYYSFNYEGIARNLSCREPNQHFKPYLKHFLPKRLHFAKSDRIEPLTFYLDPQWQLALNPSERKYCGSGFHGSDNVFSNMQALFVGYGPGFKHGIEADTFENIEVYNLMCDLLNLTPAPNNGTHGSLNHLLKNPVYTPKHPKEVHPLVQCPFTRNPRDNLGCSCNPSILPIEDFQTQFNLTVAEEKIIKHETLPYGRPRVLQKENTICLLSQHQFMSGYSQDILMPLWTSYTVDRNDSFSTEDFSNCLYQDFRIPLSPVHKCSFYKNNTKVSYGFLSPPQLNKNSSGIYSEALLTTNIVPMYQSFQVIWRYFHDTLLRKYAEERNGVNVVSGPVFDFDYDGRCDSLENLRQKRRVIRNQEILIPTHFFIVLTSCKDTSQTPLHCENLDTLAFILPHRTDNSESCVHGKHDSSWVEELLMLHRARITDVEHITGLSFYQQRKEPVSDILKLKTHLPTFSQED

SMILES | IC50
Cc1cc(Cl)n2ncnc(N3CC4(CC(N(C[C@H](O)C(F)(F)F)S(N)(=O)=O)C4)C3)c12 (stereo in doubt) [Compound 1.126, N-(2-(7-chloro-5-methylpyrrolo[2,1-f][1,2,4]triazin-4-yl)-2-azaspiro[3.3]heptan-6-yl)-N-(3,3,3-trifluoro-2-hydroxypropyl)sulfamide] | 0.023 µM
COc1cc2[nH]c(=O)nc(N3CC(CCNS(N)(=O)=O)C3)c2cc1OC [Compound 1.2, (2-(1-(6,7-dimethoxy-2-oxo-1,2-dihydroquinazolin-4-yl)azetidin-3-yl)ethyl)amiosulfonamide] | > 5 µM
COc1cc2c(N3CC(CCNS(N)(=O)=O)C3)ncnc2cn1 [Compound 1.3, (2-(1-(6-methoxypyrido[3,4-d]pyrimidin-4-yl)azetidin-3-yl)ethyl)aminisulfonamide] | 0.22 µM
COc1cc2ncnc(N3CC(CCC(=O)O)C3)c2cc1OC [Compound 1.5, 3-(1-(6,7-dimethoxyquinazolin-4-yl)azetidin-3-yl)propanoic acid] | 0.16 µM
COc1cc2ncnc(N3CC(CNS(N)(=O)=O)C3)c2cc1OC [Compound 1.10, N-((1-(6,7-dimethoxyquinazolin-4-yl)azetidin-3-yl)methyl) aminisulfonamide] | 0.028 µM
COc1cc2nccc(N3CC(CCNS(N)(=O)=O)C3)c2cc1OC [Compound 1.11, (2-(1-(6,7-dimethoxyquinolin-4-yl)azetidin-3-yl)ethyl)aminosulfonamide] | 0.09 µM
Cn1ccc2ncnc(N3CC(CCNS(N)(=O)=O)C3)c21 [Compound 1.14, 4-(3-(2-sulfamoylaminoethyl)azetidine-1-yl)-5-methyl-5H-pyrrolo[3,2-d]pyrimidine] | 0.12 µM
COc1cc2ncnc(N3CC4(CC(NS(N)(=O)=O)C4)C3)c2cc1OC [Compound 1.15, 4-(6-sulfamoylamino-2-azaspiro[3.3]heptan-2-yl)-6,7-dimethoxyquinazoline] | 0.005 µM
NS(=O)(=O)NCCC1CN(c2ncnc3cc4c(cc23)OCO4)C1 [Compound 1.18, 8-(3-(2-sulfamoylaminoethyl)azetidine-1-yl)-[1,3]dioxolo[4,5-g]quinazoline] | > 3 µM
COc1cc2ncc(C#N)c(N3CC4(CC(NS(N)(=O)=O)C4)C3)c2cc1OC [Compound 1.24, 4-(6-sulfamoylamino-2-azaspiro[3.3]heptan-2-yl)-6,7-dimethoxyquinoline-3-carbonitrile] | 0.002 µM
Cn1cnc2c(F)c3ncnc(N4CC(CCNS(N)(=O)=O)C4)c3cc21 [Compound 1.32, 8-(3-(2-sulfamoylaminoethyl)azetidine-1-yl)-4-fluoro-1-methyl-1H-imidazo[4,5-g]quinazoline] | > 3 µM
COc1cc2nc(-c3ccc(F)cc3)nc(N3CC(CCNS(N)(=O)=O)C3)c2cc1OC [Compound 1.33, 4-(3-(2-sulfamoylaminoethyl)azetidine-1-yl)-2-(4-fluorophenyl)-6,7-dimethoxyquinazoline] | 0.248 µM
COc1ccc2c(N3CC(CCNS(N)(=O)=O)C3)nc(-c3ccccc3)nc2c1 [Compound 1.34, 4-(3-(2-sulfamoylaminoethyl)azetidine-1-yl)-7-methoxy-2-phenylquinazoline] | > 3 µM
CCc1nc(N2CC(CCNS(N)(=O)=O)C2)c2ccc(OC)cc2n1 [Compound 1.37, 2-ethyl-7-methoxy-4-[3-[2-(sulfamoylamino)ethyl]azetidin-1-yl]quinazoline] | > 3 µM
COc1cc(F)cc2c(N3CC(CCNS(N)(=O)=O)C3)ncnc12 [Compound 1.38] | > 3 µM
COc1cc2ncnc(N3CC(CCNS(N)(=O)=O)C3)c2cc1Br [Compound 1.41, 4-(3-(2-sulfamoylaminoethyl)azetidine-1-yl)-6-bromo-7-methoxyquinazoline] | 0.737 µM
COc1ccc2c(N3CC(CCNS(N)(=O)=O)C3)nc(C34CC5CC(CC(C5)C3)C4)nc2c1 [Compound 1.45, 2-(1-adamantyl)-7-methoxy-4-[3-[2-(sulfamoylamino)ethyl]azetidin-1-yl]quinazoline] | > 3 µM

Second part, the compound after the results:

IC50 | SMILES
0.05 µM | Cc1cc(Cl)n2ncnc(N3CC4(CC(N(C[C@@H](O)C(F)(F)F)S(N)(=O)=O)C4)C3)c12 (stereo in doubt) [Compound 1.125, N-(2-(7-chloro-5-methylpyrrolo[2,1-f][1,2,4]triazin-4-yl)-2-azaspiro[3.3]heptan-6-yl)-N-(3,3,3-trifluoro-2-hydroxypropyl)sulfamide]
0.072 µM | COc1cccc2c(N3CC(CCNS(N)(=O)=O)C3)ncnc12 [Compound 1.4, (2-(1-(8-methoxyquinazolin-4-yl)azetidin-3-yl)ethyl)aminosulfonamide]
0.008 µM | COc1ccc2c(N3CC(CCNS(N)(=O)=O)C3)ncnc2c1 [Compound 1.8, (2-(1-(7-methoxyquinazolin-4-yl)azetidin-3-yl)ethyl)aminisulfonamide]
0.032 µM | COc1cccc2c(N3CC(CCNS(N)(=O)=O)C3)c(C#N)cnc12 [Compound 1.9, (2-(1-(3-cyano-8-methoxyquinolin-4-yl)azetidin-3-yl)ethyl)aminisulfonamide]
0.004 µM | COc1cc2ncc(C#N)c(N3CC(CCNS(N)(=O)=O)C3)c2cc1OC [Compound 1.12, (2-(1-(3-cyano-6,7-dimethoxyquinolin-4-yl)azetidin-3-yl)ethyl)aminisulfonamide]
0.011 µM | COc1ccc2c(N3CC(CCNS(N)(=O)=O)C3)c(C#N)cnc2c1 [Compound 1.13, 4-(3-(2-sulfamoylaminoethyl)azetidine-1-yl)-7-methoxyquinoline-3-carbonitrile]
0.076 µM | COc1ccc2ncnc(N3CC(CCNS(N)(=O)=O)C3)c2c1 [Compound 1.16, 4-(3-(2-sulfamoylaminoethyl)azetidine-1-yl)-6-methoxyquinazoline]
0.66 µM | COc1cc2nc(C3CC3)nc(N3CC(CCNS(N)(=O)=O)C3)c2cc1OC [Compound 1.25, 4-(3-(2-sulfamoylaminoethyl)azetidine-1-yl)-2-cyclopropyl-6,7-dimethoxyquinazoline]
0.892 µM | COc1cc2ncnc(N3CC(CCP(=O)(O)O)C3)c2cc1OC [Compound 1.29, 2-(1-(6,7-dimethoxyquinazolin-4-yl)azetidin-3-yl)ethylphosphonic acid]
> 3 µM | COc1ccc2c(N3CC(CCNS(N)(=O)=O)C3)ncnc2c1OC [Compound 1.31, 4-(3-(2-sulfamoylaminoethyl)azetidine-1-yl)-7,8-dimethoxyquinazoline]
0.464 µM | COc1cc2nc(-c3ccn(C)n3)nc(N3CC(CCNS(N)(=O)=O)C3)c2cc1OC [Compound 1.36, 6,7-dimethoxy-2-(1-methylpyrazol-3-yl)-4-[3-[2-(sulfamoylamino)ethyl]azetidin-1-yl]quinazoline]
> 3 µM | COc1ccc2c(N3CC(CCNS(N)(=O)=O)C3)nc(-c3cccnc3)nc2c1 [Compound 1.44, 4-(3-(2-sulfamoylaminoethyl)azetidine-1-yl)-7-methoxy-2-(pyridin-3-yl)quinazoline]
0.122 µM | COc1cc2ncnc(N3CC4(CC(CB(O)O)C4)C3)c2cc1OC [Compound 1.53, (2-(6,7-dimethoxyquinazolin-4-yl)-2-azaspiro[3.3]heptan-6-yl)methylboronic acid]
1.68 µM | COc1cc2ncnc(N3CC(CCNS(N)(=O)=O)C3)c2cc1C [Compound 1.54, N-(2-[1-(7-methoxy-6-methylquinazolin-4-yl)azetidin-3-yl]ethyl)sulfuric diamide]
